According to patent US20250049735A1, “MEDICINE FOR STEATOHEPATITIS” (The University of Tokyo, priority 2021, published 2025):

How the values were obtained:
Atp8b1 E-KO mice [1] = settings: mother mice fed 1% choline supplemented diet; pups at 4 weeks of age
Procedure: (§1) All animal experiments were approved by and performed in accordance with the guidelines of the animal experiment committee of the University of Tokyo. To generate Atp8b1^flox/flox mice, ICR and C57BL/6J mice were purchased from Charles River Laboratories International, Inc. (Yokohama, Japan). Mice were kept under pathogen-free conditions at a room temperature of 23.5° C.±2.5° C. and a relative humidity of 52.5%+12.5% under a 14-hour light: 10-hour dark cycle. […] In order to supplement choline to pups, mother mice were fed with a 1.0% choline supplemented diet (D20011404, Research Diets) until weaning of their pups.
Male mice harboring the designed floxed Atp8b1 allele with flox mutation were bred with female C57BL/6 mice, and the heterozygous floxed (Atp8b1^flox/+) mice in the obtained offsprings were intercrossed to produce homozygous floxed (Atp8b1^flox/flox) mice. The Atp8b1^flox/flox mice were crossed with villin-Cre transgenic mice (Stock No: 021504; The Jackson Laboratory, Bar Harbor, ME), and Atp8b1^flox/+; villin-Cre mice in the obtained offsprings were mated with Atp8b1^flox/flox mice to obtain intestinal epithelial cell (IEC)-specific Atp8b1 knockout (Atp8b1 IEC-KO; Atp8b1^flox/flox; villin-Cre) mice (Atp8b1 E-KO). Male Atp8b1 E-KO were mated with female Atp8b1^flox/flox mice, and the resulting Atp8b1 E-KO mice and littermate Atp8b1^flox/flox mice were used for animal experiments.
(§2) Male 3 to 4-week-old intestinal epithelial cell-specific Atp8b1 knockout (Atp8b1 E-KO) mice and control mice (littermate Flox/Flox mice) underwent laparotomy under isoflurane anesthesia. […] The blood was centrifuged at 1,700×g for 15 minutes, and plasma was separated. Thereafter, the plasma was flash-frozen in liquid nitrogen and was stored at −80° C. The liver was excised and was then flash-frozen in liquid nitrogen, and thereafter, the thus frozen liver was stored at −80° C., or was used for histological and electron microscopic analyses. The small intestine was excised, was then rinsed with cold PBS containing 0.5m M taurocholic acid, and was then used for histological and electron microscopic analyses, or for preparation of epithelial cells. To isolate epithelial cells from small intestine, TTDR kit (Becton Dickinson, Becton Drive Franklin Lakes, NJ) was used. According to the manufacturer's instructions included with the kit, the small intestine was opened longitudinally, was sliced into small fragments with a size of roughly 2 mm. The fragments were incubated with 1×TTDR diluted with DMEM (11995-065, gibco) at 37° C. for 30 minutes, and the resulting fragments were then mixed with 2 mM EDTA/PBS containing 1% BSA. The thus obtained mixture was filtrated through a 70 μm cell strainer (VWR21008-952; Corning Inc, Corning, NY), and was then centrifugated at 250×g at 4° C. for 10 minutes. The obtained cell pellets were incubated with 1×Pharm Lyse (Becton Dickinson, Becton Drive Franklin Lakes, NJ) at room temperature for 15 minutes for the lysis of red blood cells, and the resultant was then mixed with 2 mM EDTA/PBS containing 1% BSA. The thus obtained mixture was centrifuged at 250×g at 4° C. for 10 minutes. The prepared epithelial cells were flash frozen in liquid nitrogen, and were then stored at −80° C.
ALT and AST were determined by automatic measurement with Dri-chem (FUJIFILM, Tokyo, Japan).
The liver was cut into small pieces, was then fixed with 10% neutral buffered formalin, and was then embedded in paraffin. […]

Atp8b1 E-KO mice [2] = tested on: Atp8b1 E-KO mice
Procedure: as §1, §2
Metabolites were extracted from plasma, liver, and intestinal epithelial cells with methanol. After centrifugation at 20,000×g at 4° C. for 5 minutes, the supernatant was mixed with 400 mM ammonium sulfate at a ratio of 19:1. The mixture was centrifuged at 20,000×g at 4° C. for 5 minutes. The supernatant was applied to the LC/MS/MS system, which consisted of a UHPLC Nexera liquid chromatography system (Shimadzu co., Kyoto, Japan) and a 5500QTRAP mass spectrometer (AB Sciex pte. ltd., Toronto, Canada). The analytes were passed through a ZIC-CHILIC column (2.1×100 mm, 3 μm, Merck Millipore, Darmstadt, Germany) at a temperature of 30° C. with a gradient elution of the mobile phases, 10 mM ammonium formate aqueous solution and acetonitrile at a flow rate at 0.4 mL/min. The eluent was ionized using electrospray ionization and was scanned with an MRM mode (see Yuan et al., Nat. Protoc. 2012, 7 (5), 872-881. https://doi.org/10.1038/nprot.2012.024). Each MRM peak was assigned to a target molecule in comparison with its authentic standard.
The concentrations of choline, betaine, dimethylglycine (N,N-dimethylglycine) and glycerophosphorylcholine (sn-glycero-3-phosphocholine) in plasma were determined by liquid chromatography/tandem mass spectrometry (LC/MS/MS) assay. The sample was mixed with 98-fold volume of ethanol and 1-fold volume of the internal standard (IS) solution (10 μmol/L choline in water, 10 μmol/L glycerophosphorylcholine in water, and 1 μmol/L betaine in water).

[3] = liver of pups, mothers fed 1% choline supplemented diet vs normal diet (0.1% choline)
[4] = liver of pups, mothers fed 1% choline supplemented diet, compared with control mice
[5] = plasma and liver of Atp8b1 E-KO pups, mothers fed 1% choline supplemented diet, summary statement
[6] = plasma of pups, mothers fed 1% choline supplemented diet vs normal diet (0.1% choline)
[7] = plasma of pups, mothers fed 1% choline supplemented diet, compared with control mice
[8] = small intestinal epithelial cells of pups, mothers fed 1% choline supplemented diet vs normal diet (0.1% choline)

**Q.** How did the “amount of neutrophils (MPO positive cells) in the liver” value (Atp8b1 E-KO mice [1]) turn out when `C[N+](C)(C)CCO` [choline] was run?
**A.** The value was “reduced”.

**Q.** What about the “amount of tissue macrophages (F4/80 positive cells) in the liver” value (Atp8b1 E-KO mice [1]) of the same compound?
**A.** Its value is “reduced”.

**Q.** What about the body weight (Atp8b1 E-KO mice [1]) of the same compound?
**A.** The body weight was “No changes were observed”.

**Q.** And the “increase in liver weight observed in Atp8b1 E-KO pups” value (Atp8b1 E-KO mice [1])?
**A.** Its value is “resolved”.

**Q.** What about the small intestine length (Atp8b1 E-KO mice [1]) of the same compound?
**A.** Its small intestine length is “No changes were observed”.

**Q.** What about the “concentration of choline in liver” value (Atp8b1 E-KO mice [2]; [3]) of the same compound?
**A.** Its value is “not changed”.

**Q.** What about the “concentration of glycerophosphorylcholine (GPC) in liver” value (Atp8b1 E-KO mice [2]; [3]) of the same compound?
**A.** Its value is “not changed”.

**Q.** And the “concentration of phosphorylcholine in liver” value (Atp8b1 E-KO mice [2]; [3])?
**A.** The value was “not changed”.

**Q.** And the “concentration of betaine in liver” value (Atp8b1 E-KO mice [2]; [4])?
**A.** Its value is “recovered”.

**Q.** What about the “concentration of dimethylglycine in liver” value (Atp8b1 E-KO mice [2]; [4]) of the same compound?
**A.** The value was “recovered”.

**Q.** What about the “concentration of phosphatidylcholine (PC) in liver” value (Atp8b1 E-KO mice [2]; [4]) of the same compound?
**A.** Its value is “recovered”.

**Q.** What about the “amount of choline in the pups” value (Atp8b1 E-KO mice [2]; plasma and liver of Atp8b1 E-KO pups, mothers fed 1% choline supplemented diet vs normal diet, summary statement) of the same compound?
**A.** Its value is “no change”.

**Q.** And the “amount of betaine in the pups” value (Atp8b1 E-KO mice [2]; [5])?
**A.** The value was “increased”.

**Q.** And the “amount of dimethylglycine in the pups” value (Atp8b1 E-KO mice [2]; [5])?
**A.** The value was “increased”.

**Q.** And the “amount of phosphatidylcholine (PC) in the pups” value (Atp8b1 E-KO mice [2]; [5])?
**A.** The value was “increased”.

**Q.** What about the “concentration of choline in plasma” value (Atp8b1 E-KO mice [2]; [6]) of the same compound?
**A.** Its value is “not changed”.

**Q.** And the “concentration of glycerophosphorylcholine (GPC) in plasma” value (Atp8b1 E-KO mice [2]; [6])?
**A.** Its value is “not changed”.

**Q.** What about the “concentration of phosphorylcholine in plasma” value (Atp8b1 E-KO mice [2]; [6]) of the same compound?
**A.** Its value is “not changed”.

**Q.** And the “concentration of betaine in plasma” value (Atp8b1 E-KO mice [2]; [7])?
**A.** The value was “recovered”.

**Q.** What about the “concentration of dimethylglycine in plasma” value (Atp8b1 E-KO mice [2]; [7]) of the same compound?
**A.** The value was “recovered”.

**Q.** And the “concentration of betaine in small intestinal epithelial cells” value (Atp8b1 E-KO mice [2]; small intestinal epithelial cells of pups, mothers fed 1% choline supplemented diet)?
**A.** Its value is “not changed”.

**Q.** And the “concentration of choline in small intestinal epithelial cells” value (Atp8b1 E-KO mice [2]; [8])?
**A.** The value was “not changed”.

**Q.** And the “concentration of glycerophosphorylcholine (GPC) in small intestinal epithelial cells” value (Atp8b1 E-KO mice [2]; [8])?
**A.** The value was “not changed”.

**Q.** And the “concentration of phosphorylcholine in small intestinal epithelial cells” value (Atp8b1 E-KO mice [2]; [8])?
**A.** Its value is “not changed”.
